Test results from PubChem BioAssay (NCI).
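Each compound was tested at five concentrations against cells in 96-well plates for 48 hours. Abbreviation: GI50, concentration required for 50% inhibition of growth. TGI is the concentration that stops growth completely.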

Key:
Assay in all cases: inhibition of tumour cell growth, NCI panel, 48 h
HS 578T breast = test system: HS 578T breast
SF-268 CNS = test system: SF-268 CNS
MDA-MB-231 breast = test system: MDA-MB-231 breast
TK-10 renal = test system: TK-10 renal
IGROV1 ovarian = test system: IGROV1 ovarian
HCC-2998 colon = test system: HCC-2998 colon
SW-620 colon = test system: SW-620 colon
NCI-H460 lung = test system: NCI-H460 lung
KM12 colon = test system: KM12 colon
PC-3 prostate = test system: PC-3 prostate
SF-539 CNS = test system: SF-539 CNS
HCT-15 colon = test system: HCT-15 colon
NCI-H226 lung = test system: NCI-H226 lung
RXF 393 renal = test system: RXF 393 renal
MCF7 breast = test system: MCF7 breast
A498 renal = test system: A498 renal
A549 NSCLC = test system: A549 NSCLC
M14 melanoma = test system: M14 melanoma
K-562 leukemia = test system: K-562 leukemia
U251 CNS = test system: U251 CNS
786-0 renal = test system: 786-0 renal
LOX IMVI melanoma = test system: LOX IMVI melanoma
SN12C renal = test system: SN12C renal
SK-MEL-28 melanoma = test system: SK-MEL-28 melanoma
HCT-116 colon = test system: HCT-116 colon
HL-60(TB) leukemia = test system: HL-60(TB) leukemia
EKVX NSCLC = test system: EKVX NSCLC
UO-31 renal = test system: UO-31 renal
CCRF-CEM leukemia = test system: CCRF-CEM leukemia
SNB-19 CNS = test system: SNB-19 CNS
OVCAR-8 ovarian = test system: OVCAR-8 ovarian
MDA-MB-435 = test system: MDA-MB-435
OVCAR-3 ovarian = test system: OVCAR-3 ovarian
CAKI-1 renal = test system: CAKI-1 renal
NCI-H522 lung = test system: NCI-H522 lung
SR leukemia = test system: SR leukemia
HOP-62 NSCLC = test system: HOP-62 NSCLC
UACC-62 melanoma = test system: UACC-62 melanoma
NCI-H23 lung = test system: NCI-H23 lung
ACHN renal = test system: ACHN renal
MALME-3M melanoma = test system: MALME-3M melanoma
MOLT-4 leukemia = test system: MOLT-4 leukemia
OVCAR-4 ovarian = test system: OVCAR-4 ovarian
HT29 colon = test system: HT29 colon
T-47D breast = test system: T-47D breast
HOP-92 NSCLC = test system: HOP-92 NSCLC
DU-145 prostate = test system: DU-145 prostate
MDA-MB-468 breast = test system: MDA-MB-468 breast
SF-295 CNS = test system: SF-295 CNS
RPMI-8226 leukemia = test system: RPMI-8226 leukemia
SK-OV-3 ovarian = test system: SK-OV-3 ovarian
OVCAR-5 ovarian = test system: OVCAR-5 ovarian
NCI/ADR-RES ovarian = test system: NCI/ADR-RES ovarian

`COc1ccc(NC(=O)Nc2nc3ccc([N+](=O)[O-])cc3s2)cc1` showed a GI50 (HS 578T breast) of 2.81 µM, a TGI (HS 578T breast) of 8.21 µM and a GI50 (SF-268 CNS) of 2.91 µM. For the same compound, the TGI (SF-268 CNS) was 16.2 µM, the GI50 (MDA-MB-231 breast) was 2.76 µM and the TGI (MDA-MB-231 breast) was 7.86 µM. It also gave a GI50 (TK-10 renal) of 3.66 µM, a TGI (TK-10 renal) of 10.7 µM and a GI50 (IGROV1 ovarian) of 3.37 µM. It also gave a TGI (IGROV1 ovarian) of 15.3 µM, a GI50 (HCC-2998 colon) of 2.72 µM and a TGI (HCC-2998 colon) of 9.54 µM. The GI50 (SW-620 colon) was 3.07 µM, the TGI (SW-620 colon) was 13.8 µM and the GI50 (NCI-H460 lung) was 2.37 µM. For the same compound, the TGI (NCI-H460 lung) was 5.79 µM, the GI50 (KM12 colon) was 2.22 µM and the TGI (KM12 colon) was 5.92 µM. The GI50 (PC-3 prostate) was 2.15 µM, the TGI (PC-3 prostate) was 8.35 µM and the GI50 (SF-539 CNS) was 2.41 µM. For the same compound, the TGI (SF-539 CNS) was 5.95 µM, the GI50 (HCT-15 colon) was 2.68 µM and the TGI (HCT-15 colon) was 10.4 µM. For the same compound, the GI50 (NCI-H226 lung) was 2.31 µM, the TGI (NCI-H226 lung) was 6.63 µM and the GI50 (RXF 393 renal) was 2.54 µM. For the same compound, the TGI (RXF 393 renal) was 7.24 µM, the GI50 (MCF7 breast) was 2.2 µM and the TGI (MCF7 breast) was 6.31 µM. For the same compound, the GI50 (A498 renal) was 1.66 µM, the TGI (A498 renal) was 4.83 µM and the GI50 (A549 NSCLC) was 2.23 µM. For the same compound, the TGI (A549 NSCLC) was 6.22 µM, the GI50 (M14 melanoma) was 2.73 µM and the TGI (M14 melanoma) was 9.02 µM. For the same compound, the GI50 (K-562 leukemia) was 2.71 µM, the TGI (K-562 leukemia) was 13 µM and the GI50 (U251 CNS) was 2.24 µM. It also gave a TGI (U251 CNS) of 5.76 µM, a GI50 (786-0 renal) of 2.89 µM and a TGI (786-0 renal) of 11.6 µM. For the same compound, the GI50 (LOX IMVI melanoma) was 2.42 µM, the TGI (LOX IMVI melanoma) was 6.18 µM and the GI50 (SN12C renal) was 2.66 µM. For the same compound, the TGI (SN12C renal) was 8.64 µM, the GI50 (SK-MEL-28 melanoma) was 3.09 µM and the TGI (SK-MEL-28 melanoma) was 11.9 µM. The GI50 (HCT-116 colon) was 2.52 µM, the TGI (HCT-116 colon) was 7.67 µM and the GI50 (HL-60(TB) leukemia) was 2.1 µM. It also gave a TGI (HL-60(TB) leukemia) of 5.84 µM, a GI50 (EKVX NSCLC) of 2.66 µM and a TGI (EKVX NSCLC) of 7.96 µM. The GI50 (UO-31 renal) was 2.51 µM, the TGI (UO-31 renal) was 8.98 µM and the GI50 (CCRF-CEM leukemia) was 2.27 µM. It also gave a TGI (CCRF-CEM leukemia) of 7.69 µM, a GI50 (SNB-19 CNS) of 2.85 µM and a TGI (SNB-19 CNS) of 16.8 µM. It also gave a GI50 (OVCAR-8 ovarian) of 3.18 µM, a TGI (OVCAR-8 ovarian) of 13.7 µM and a GI50 (MDA-MB-435) of 1.92 µM. It also gave a TGI (MDA-MB-435) of 5.68 µM, a GI50 (OVCAR-3 ovarian) of 2.15 µM and a TGI (OVCAR-3 ovarian) of 5.36 µM. The GI50 (CAKI-1 renal) was 2.08 µM, the TGI (CAKI-1 renal) was 5.01 µM and the GI50 (NCI-H522 lung) was 1.72 µM. It also gave a TGI (NCI-H522 lung) of 5.94 µM, a GI50 (SR leukemia) of 2.52 µM and a TGI (SR leukemia) of 12.8 µM. For the same compound, the GI50 (HOP-62 NSCLC) was 2.92 µM, the TGI (HOP-62 NSCLC) was 10.7 µM and the GI50 (UACC-62 melanoma) was 2.63 µM. It also gave a TGI (UACC-62 melanoma) greater than 100 µM, a GI50 (NCI-H23 lung) of 2.22 µM and a TGI (NCI-H23 lung) of 6.64 µM. For the same compound, the GI50 (ACHN renal) was 2.48 µM, the TGI (ACHN renal) was 7.09 µM and the GI50 (MALME-3M melanoma) was 2.19 µM. It also gave a TGI (MALME-3M melanoma) of 6.21 µM, a GI50 (MOLT-4 leukemia) of 2.71 µM and a TGI (MOLT-4 leukemia) of 10.7 µM. It also gave a GI50 (OVCAR-4 ovarian) of 2.84 µM, a TGI (OVCAR-4 ovarian) of 12.6 µM and a GI50 (HT29 colon) of 3.34 µM. It also gave a TGI (HT29 colon) of 14.8 µM, a GI50 (T-47D breast) of 1.67 µM and a TGI (T-47D breast) of 6.66 µM. For the same compound, the GI50 (HOP-92 NSCLC) was 1.92 µM, the TGI (HOP-92 NSCLC) was 5.97 µM and the GI50 (DU-145 prostate) was 3.02 µM. For the same compound, the TGI (DU-145 prostate) was 11.4 µM, the GI50 (MDA-MB-468 breast) was 1.66 µM and the TGI (MDA-MB-468 breast) was 4.17 µM. It also gave a GI50 (SF-295 CNS) of 1.9 µM, a TGI (SF-295 CNS) of 4.3 µM and a GI50 (RPMI-8226 leukemia) of 1.83 µM. It also gave a TGI (RPMI-8226 leukemia) of 5.97 µM, a GI50 (SK-OV-3 ovarian) of 2.37 µM and a TGI (SK-OV-3 ovarian) of 7.09 µM. For the same compound, the GI50 (OVCAR-5 ovarian) was 2.8 µM, the TGI (OVCAR-5 ovarian) was 9.95 µM and the GI50 (NCI/ADR-RES ovarian) was 2.62 µM. For the same compound, the TGI (NCI/ADR-RES ovarian) was 8.16 µM.
